From US9120804B2, “8-substituted 2-amino-[1,2,4] triazolo [1, 5-A] pyrazines as Syk tryrosine kinase inhibitors and GCN2 serin kinase inhibitors” (Merck Patent GmbH, priority 2012, dated 2015) come the findings set out here.

pIC50: −log10 of the molar value.

One test concerns the target T1, SYK (Homo sapiens, UniProt P43405).
T1 construct: 2.5 nM SYK, 400 nM Biotin-Aha-Aha-KEDPDYEWPSAKK
Put plainly: SYK flash plate assay (enzyme assay). The test is classed as biochemical. An outline of the steps: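 Radiometric Flashplate format: biotinylated peptide substrate (400 nM) and 33P-labelled ATP (10 μM) react with 2.5 nM enzyme for 1 hour at 30 °C in Hepes buffer, pH 7.5. After EDTA quench and washing, counts are taken; staurosporine defines non-specific signal, and IC50 values are derived.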

Another test concerns the target GCN2 (Homo sapiens, UniProt Q9P2K8). Put plainly: GCN2 enzyme assay. The test is classed as biochemical.

GCN2, sequence (Q9P2K8 whole entry): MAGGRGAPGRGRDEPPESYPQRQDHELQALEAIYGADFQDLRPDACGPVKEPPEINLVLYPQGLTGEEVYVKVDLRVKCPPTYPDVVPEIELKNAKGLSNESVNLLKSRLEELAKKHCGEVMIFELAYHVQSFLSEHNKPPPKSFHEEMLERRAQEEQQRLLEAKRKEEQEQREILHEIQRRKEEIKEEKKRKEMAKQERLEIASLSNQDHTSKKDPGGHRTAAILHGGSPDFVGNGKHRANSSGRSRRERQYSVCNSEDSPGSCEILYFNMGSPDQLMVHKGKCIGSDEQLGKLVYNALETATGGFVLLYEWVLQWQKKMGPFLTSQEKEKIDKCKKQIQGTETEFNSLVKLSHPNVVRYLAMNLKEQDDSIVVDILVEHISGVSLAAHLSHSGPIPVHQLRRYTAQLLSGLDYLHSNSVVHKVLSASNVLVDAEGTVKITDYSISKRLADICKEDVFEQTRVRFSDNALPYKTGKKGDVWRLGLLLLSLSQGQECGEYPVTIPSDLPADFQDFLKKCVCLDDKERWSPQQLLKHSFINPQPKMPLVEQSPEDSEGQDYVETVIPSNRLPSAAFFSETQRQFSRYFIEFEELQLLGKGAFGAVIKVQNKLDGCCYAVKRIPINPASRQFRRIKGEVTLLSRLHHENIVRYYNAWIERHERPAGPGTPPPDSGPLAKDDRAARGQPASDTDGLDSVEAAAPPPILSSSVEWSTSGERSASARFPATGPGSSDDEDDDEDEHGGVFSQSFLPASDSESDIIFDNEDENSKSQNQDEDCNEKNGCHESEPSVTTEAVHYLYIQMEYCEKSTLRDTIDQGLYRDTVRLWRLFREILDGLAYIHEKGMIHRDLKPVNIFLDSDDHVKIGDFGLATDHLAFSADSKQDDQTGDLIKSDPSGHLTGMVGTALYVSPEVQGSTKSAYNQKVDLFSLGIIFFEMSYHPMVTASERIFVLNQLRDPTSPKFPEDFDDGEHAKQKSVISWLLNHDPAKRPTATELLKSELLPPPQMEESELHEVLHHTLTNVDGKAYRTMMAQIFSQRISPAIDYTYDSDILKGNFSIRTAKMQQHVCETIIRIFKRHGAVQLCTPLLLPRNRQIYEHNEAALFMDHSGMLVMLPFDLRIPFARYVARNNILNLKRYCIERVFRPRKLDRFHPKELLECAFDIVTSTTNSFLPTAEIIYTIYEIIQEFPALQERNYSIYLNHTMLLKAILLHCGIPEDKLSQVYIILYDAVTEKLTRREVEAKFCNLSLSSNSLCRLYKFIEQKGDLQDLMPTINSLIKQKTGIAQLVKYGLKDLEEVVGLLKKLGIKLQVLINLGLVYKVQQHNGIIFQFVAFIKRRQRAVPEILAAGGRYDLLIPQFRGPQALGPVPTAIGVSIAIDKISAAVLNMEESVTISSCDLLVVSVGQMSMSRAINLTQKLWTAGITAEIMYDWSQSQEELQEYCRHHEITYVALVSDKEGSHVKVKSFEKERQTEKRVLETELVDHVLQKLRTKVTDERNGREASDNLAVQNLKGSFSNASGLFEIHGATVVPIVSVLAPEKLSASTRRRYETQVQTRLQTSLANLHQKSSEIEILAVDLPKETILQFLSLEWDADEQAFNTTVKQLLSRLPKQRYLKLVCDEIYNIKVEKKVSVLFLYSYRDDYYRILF

As a reminder, the pIC50 is −log10 of the IC50, conventionally taken in molar units. `CC(C)C1(O)C(=O)Nc2cc(Nc3nc4c(-c5cnn(C)c5)nccn4n3)ccc21` (stereo not shown) [C82, 3-hydroxy-3-isopropyl-6-[8-(1-methyl-1H-pyrazol-4-yl)-[1,2,4]triazolo[1,5-a]pyrazin-2-ylamino]-1,3-dihydro-indol-2-one]: the pIC50 at SYK was 6.52 to 7.00; at GCN2, 5.52 to 6.52.
On to `CC1(C)C(=O)Nc2cc(Nc3nc4c(N5CC[C@H](N)C5)nccn4n3)ccc21` [C86, 6-[8-((S)-3-amino-pyrrolidin-1-yl)-[1,2,4]triazolo[1,5-a]pyrazin-2-ylamino]-3,3-dimethyl-1,3-dihydro-indol-2-one], for which the figures for the pIC50 against SYK and on GCN2 were 5.52 to 6.52 and 4.30 to 5.52, respectively.
With `Cn1cc(-c2nccn3nc(Nc4ccc(C#N)c(O)c4)nc23)cn1` [C36, 2-Hydroxy-4-[8-(1-methyl-1H-pyrazol-4-yl)-[1,2,4]triazolo[1,5-a]pyrazin-2-ylamino]-benzonitrile], the negative-log IC50 (pIC50) at SYK and against GCN2 was 5.52 to 6.52 each time.
As for `Cn1cc(-c2nccn3nc(Nc4ccc(C5(C(N)=O)CC5)cc4)nc23)cn1` [C64, 1-{4-[8-(1-methyl-1H-pyrazol-4-yl)-[1,2,4]triazolo[1,5-a]pyrazin-2-ylamino]-phenyl}-cyclopropanecarboxylic acid amide], the pIC50 against SYK and at GCN2 was 5.52 to 6.52 in each case.
Consider `Cn1cc(-c2nccn3nc(Nc4ccc([S+](C)[O-])cc4)nc23)cn1` (stereo not shown) [C32, (4-Methanesulfinyl-phenyl)-[8-(1-methyl-1H-pyrazol-4-yl)-[1,2,4]triazolo[1,5-a]pyrazin-2-yl]-amine], for which the pIC50 was 5.52 to 6.52 against SYK and 4.30 to 5.52 at GCN2.
Consider `Cn1cc(-c2nccn3nc(Nc4ccc5c(c4)NC(=O)C5(C)C)nc23)cn1` [C34, 3,3-Dimethyl-6-[8-(1-methyl-1H-pyrazol-4-yl)-[1,2,4]triazolo[1,5-a]pyrazin-2-ylamino]-1,3-dihydro-indol-2-one], for which the pIC50 against SYK is above 7.00; against GCN2, 4.30 to 5.52.
On to `COc1cc(Nc2nc3c(N4CCC(O)(CCO)CC4)nccn3n2)cc(OC)c1` [C49, 1-[2-(3,5-dimethoxy-phenylamino)-[1,2,4]triazolo[1,5-a]pyrazin-8-yl]-4-(2-hydroxy-ethyl)-piperidin-4-ol], for which the pIC50 on SYK is 5.52 to 6.52; against GCN2, 4.30 to 5.52.
For `Cc1nc2cc(Nc3nc4c(-c5ccc(CN6CCOCC6)c(F)c5)nccn4n3)ccc2[nH]1` [C59, [8-(3-fluoro-4-morpholin-4-ylmethyl-phenyl)-[1,2,4]triazolo[1,5-a]pyrazin-2-yl]-(2-methyl-1H-benzoimidazol-5-yl)-amine], the pIC50 against SYK is 4.30 to 5.52; on GCN2 it was 5.52 to 6.52.
For `Cc1nc2cc(Nc3nc4c(-c5ccc(C(=O)N6CCOCC6)cc5)nccn4n3)ccc2[nH]1` [C48, {4-[2-(2-methyl-1H-benzoimidazol-5-ylamino)-[1,2,4]triazolo[1,5-a]pyrazin-8-yl]-phenyl}-morpholin-4-yl-methanone] the same measures were 4.30 to 5.52 and 5.52 to 6.52.
As for `Cn1cc(Nc2nc3c(-c4cnn(C)c4)nccn3n2)cn1` [C26, (1-Methyl-1H-pyrazol-4-yl)-[8-(1-methyl-1H-pyrazol-4-yl)-[1,2,4]triazolo[1,5-a]pyrazin-2-yl]-amine], the pIC50 is 5.52 to 6.52 against SYK and 4.30 to 5.52 at GCN2.
For `COc1ccc(Nc2nc3c(-c4cnn(C)c4)nccn3n2)cc1` [C2, (4-Methoxy-phenyl)-[8-(1-methyl-1H-pyrazol-4-yl)-[1,2,4]triazolo[1,5-a]pyrazin-2-yl]-amine] the same measures were 5.52 to 6.52 and 4.30 to 5.52.
For `CN(C)Cc1nc2ccc(Nc3nc4c(-c5cnn(C)c5)nccn4n3)cc2[nH]1` [C33, (2-Dimethylaminomethyl-3H-benzoimidazol-5-yl)-[8-(1-methyl-1H-pyrazol-4-yl)-[1,2,4]triazolo[1,5-a]pyrazin-2-yl]-amine] the same measures were 6.52 to 7.00 and 5.52 to 6.52.
With `Cn1cc(-c2nccn3nc(Nc4ccc5c(C(C)(O)C(F)(F)F)c[nH]c5c4)nc23)cn1` (stereo not shown) [C113, 1,1,1-trifluoro-2-{6-[8-(1-methyl-1H-pyrazol-4-yl)-[1,2,4]triazolo[1,5-a]pyrazin-2-ylamino]-1H-indol-3-yl}-propan-2-ol], the results for the pIC50 on SYK and against GCN2 were above 7.00 and 5.52 to 6.52, respectively.
For `CS(=O)(=O)c1ccc(-c2nccn3nc(Nc4ccc(N5CCOCC5)cc4)nc23)cc1` [C38, 8-(4-methylsulfonylphenyl)-N-(4-morpholinophenyl)-[1,2,4]triazolo[1,5-a]pyrazin-2-amine] the same measures were 6.52 to 7.00 and 5.52 to 6.52.
For `N#CC1(c2ccc(Nc3nc4c(-c5cn[nH]c5)nccn4n3)cc2)CC1` [C65, 1-{4-[8-(1H-pyrazol-4-yl)-[1,2,4]triazolo[1,5-a]pyrazin-2-ylamino]-phenyl}-cyclopropanecarbonitrile] the same measures were 6.52 to 7.00 and 4.30 to 5.52.
`CC1(C)C(=O)Nc2cc(Nc3nc4c(O[C@@H]5CN[C@@H](c6ccccc6C(F)(F)F)C5)nccn4n3)ccc21` [E82, 3,3-dimethyl-6-{8-[(3S,5R)-5-(2-trifluoroinethyl-phenyl)-pyrrolidin-3-yloxy]-[1,2,4]triazolo[1,5-a]pyrazin-2-ylamino}-1,3-dihydro-indol-2-one]: the pIC50 against SYK is 4.30 to 5.52.
Same read-out and setting: with `CC1(C)C(=O)Nc2cc(Nc3nc4c(N5C[C@@H](O)C[C@@H]5c5ccccc5)nccn4n3)ccc21` [E5, 6-[8-((2R,4S)-4-hydroxy-2-phenyl-pyrrolidin-1-yl)-[1,2,4]triazolo[1,5-a]pyrazin-2-ylamino]-3,3-dimethyl-1,3-dihydro-indol-2-one] the figure was 6.52 to 7.00; with `CC1(C)C(=O)Nc2cc(Nc3nc4c(-c5cccc(S(N)(=O)=O)c5)nccn4n3)ccc21` [C102, 3-[2-(3,3-dimethyl-2-oxo-2,3-dihydro-1H-indol-6-ylamino)-[1,2,4]triazolo[1,5-a]pyrazin-8-yl]-benzenesulfonamide], above 7.00; with `CC(C)(O)c1ccc(Nc2nc3c(N4CCCCCC4)nccn3n2)cc1N` [E125, 2-[2-amino-4-(8-azepan-1-yl-[1,2,4]triazolo[1,5-a]pyrazin-2-ylamino)-phenyl]-propan-2-ol], above 7.00.
Same read-out and setting: for `CN(C)c1ccc2c(c1)N(c1nccn3nc(Nc4ccc5c(c4)NC(=O)C5(C)C)nc13)CC2` [E119, 6-[8-(6-dimethylamino-2,3-dihydro-indol-1-yl)-[1,2,4]triazolo[1,5-a]pyrazin-2-ylamino]-3,3-dimethyl-1,3-dihydro-indol-2-one] the value was 6.52 to 7.00; for `CC1(C)C(=O)Nc2cc(Nc3nc4c(NC5CCCNC5)nccn4n3)ccc21` (stereo not shown) [C77, 3,3-dimethyl-6-[8-(piperidin-3-ylamino)-[1,2,4]triazolo[1,5-a]pyrazin-2-ylamino]-1,3-dihydro-indol-2-one], above 7.00.
The same measure, in the same setting: for `CC1(C)C(=O)Nc2cc(Nc3nc4c(N5CCCC(C(N)=O)C5)nccn4n3)ccc21` (stereo not shown) [E113, 1-[2-(3,3-dimethyl-2-oxo-2,3-dihydro-1H-indol-6-ylamino)-[1,2,4]triazolo[1,5-a]pyrazin-8-yl]-piperidine-3-carboxylic acid amide] the value was above 7.00; for `CC1(C)C(=O)Nc2cc(Nc3nc4c(-c5ccc6c(c5)OCCO6)nccn4n3)ccc21` [E142, 6-[8-(2,3-dihydro-benzo[1,4]dioxin-6-yl)-[1,2,4]triazolo[1,5-a]pyrazin-2-ylamino]-3,3-dimethyl-1,3-dihydro-indol-2-one], above 7.00; for `COc1ccc(Nc2nc3c(-c4ccccc4-c4ccccc4)nccn3n2)cc1OC` [C5, (8-Biphenyl-2-yl-[1,2,4]triazolo[1,5-a]pyrazin-2-yl)-(3,4-dimethoxy-phenyl)-amine], 6.52 to 7.00.
The compound `CN(C)c1nccn2nc(Nc3ccc4c(c3)NC(=O)C4(C)C)nc12` [E88, 6-(8-dimethylamino-[1,2,4]triazolo[1,5-a]pyrazin-2-ylamino)-3,3-dimethyl-1,3-dihydro-indol-2-one] had a pIC50 against SYK above 7.00.
On to `CC1(C)OC(=O)Nc2cc(Nc3nc4c(N5CCC6(CC5)CNC(=O)O6)nccn4n3)ccc21` [E47, 4,4-dimethyl-7-[8-(2-oxo-1-oxa-3,8-diaza-spiro[4.5]dec-8-yl)-[1,2,4]triazolo[1,5-a]pyrazin-2-ylamino]-1,4-dihydro-benzo[d][1,3]oxazin-2-one], for which, on SYK, the pIC50 was above 7.00.
In the case of `CC1(C)CC(=O)Nc2cc(Nc3nc4c(N5CC[C@@]6(CC(=O)NC6=O)C5)nccn4n3)ccc21` [E48, (R)-7-[2-(4,4-dimethyl-2-oxo-1,2,3,4-tetrahydro-quinolin-7-ylamino)-[1,2,4]triazolo[1,5-a]pyrazin-8-yl]-2,7-diaza-spiro[4.4]nonane-1,3-dione], the pIC50 on SYK was above 7.00.
Still for that read-out and setting: with `CC1(C)C(=O)Nc2cc(Nc3nc4c(N5CCCCC5)nccn4n3)ccc21` [E69, 3,3-dimethyl-6-(8-piperidin-1-yl-[1,2,4]triazolo[1,5-a]pyrazin-2-ylamino)-1,3-dihydro-indol-2-one] the figure was above 7.00; with `CC1(C)C(=O)Nc2cc(Nc3nc4c(NCCCN)nccn4n3)ccc21` [E122, 6-[8-(3-amino-propylamino)-[1,2,4]triazolo[1,5-a]pyrazin-2-ylamino]-3,3-dimethyl-1,3-dihydro-indol-2-one], 5.52 to 6.52; with `CC1(C)C(=O)Nc2cc(Nc3nc4c(N5CCC6(CC5)CNC(=O)O6)nccn4n3)ccc21` [E27, 8-[2-(3,3-dimethyl-2-oxo-2,3-dihydro-1H-indol-6-ylamino)-[1,2,4]triazolo[1,5-a]pyrazin-8-yl]-1-oxa-3,8-diaza-spiro[4.5]decan-2-one], above 7.00.
The same measure, in the same setting: for `CC1(C)C(=O)Nc2cc(Nc3nc4c(OC5CCNC5)nccn4n3)ccc21` (stereo not shown) [E123, 3,3-dimethyl-6-[8-(pyrrolidin-3-yloxy)-[1,2,4]triazolo[1,5-a]pyrazin-2-ylamino]-1,3-dihydro-indol-2-one] the value was 4.30 to 5.52.
